According to patent US9296720B2, “Carboxamide-substituted heteroaryl-pyrazoles and the use thereof” (AiCuris GmbH & Co. KG, priority 2011, dated 2016):
Like-named read-outs stand apart in the source and are kept apart here.

Columns and labels:
Type in all cases: cell-based
HIV-1NL4-3 Wild Type = assay: Luminescence reduction assay, MT4 cells infected with HIV-1NL4-3 luciferase reporter virus, wild type; conditions: 2% FCS
Text: (§1) For this assay, HIV-1NL4-3 reporter viruses are used, which carry the luciferase164 gene (lu164) instead of the nef gene. The viruses are generated by transfection of 293T cells with the corresponding proviral pNL4-3 plasmid (Lipofectamine Reagent, Invitrogen, Karlsruhe, Germany). Starting from the proviral plasmid-DNA, viruses with defined resistance mutations in the reverse transcriptase gene are produced with the “QuikChange II XL Site-Directed Mutagenesis Kit” (Stratagene, Cedar Creek, Tex., USA). Among other things, the following mutations are generated: A98G, A98G-K103N-V108I, A98S, F227C, F227L, G190A, G190S, K101E, K101Q-K103N, K103N, K103N-F227L, K103N-G190A, K103N-G190S, K103N-M230L, K103N-N348I, K103N-P225H, K103N-V108I, K103N-V108I-P225H, K103N-V179F-Y181C, K103N-Y181C, K103N-Y181C-G190A, L100I, L100I-K103N, L100I-K103N-V179I-Y181C, L100I-K103N-Y181C, L234I, N348I, P225H, P236L, V106A, V106A-E138K, V106A-F227C, V106A-F227L, V106I, V106I-Y188L, V106M, V108I, V179F-Y181C, V179I, V179I-Y181C, Y181C, Y181C-G190A, Y181C-M230L, Y181I, Y188L. MT4 cells infected with these reporter viruses (NIH AIDS Research and Reference Reagent Program) secrete luciferase into the medium, which makes possible the luminometric quantification of the virus replication.
(§2) For the batch of a 96-well MTP, 3 million MT4 cells are pelletized, suspended in 1 ml of RPMI 1640 medium without phenol red (Invitrogen, Karlsruhe, Germany)/10% FCS/2 mmol of L-glutamine/1% Pen/Strep (Invitrogen, Karlsruhe, Germany), and incubated together with a suitable amount of the corresponding HIV-1NL4-3 reporter virus for 2 hours at 37° C. (pellet infection). Non-adsorbed viruses are then washed out with PBS, the infected cells are pelletized again, and suspended in 8 ml of RPM 11640 medium without phenol red/2% or 10% FCS/2 mmol of L-glutamine/1% Pen/Strep. Therefrom, 80 μl per well is pipetted into a white 96-well MTP in 20 μl of test substance in a suitable dilution. In order to avoid boundary effects, the edge wells of the MTP are not used for substance dilutions. The second vertical row of the MTP contains only infected cells (virus control), and the eleventh vertical row contains only non-infected cells (cell control) in each case in RPMI 1640 medium without phenol red/2% or 10% FCS/2 mmol of L-glutamine/1% Pen/Strep. The other wells of the MTP contain the compounds according to the invention in different concentrations starting from the third vertical row, from which dilution of the test substances is carried out 3^7 times in three steps up to the tenth vertical row. The test substances are dissolved in DMSO, whereby the DMSO final concentration in the test batch is ultimately 1%. The test batches are incubated for 5 days at 37° C./5% CO2, and are luminometrically evaluated after the addition of 15 μl of Lu164-buffer (65 mmol of NaCl, 300 mmol of MES, pH 5.8, 5 mmol of glutathione and 1:200 coelenterazine (5 mg/ml in 30 μM of glutathione/DMSO) (P.J.K. GmbH, Kleinblittersdorf, Germany)). In the virus control, the resulting values are in the range of 1 million RLUs (relative light units), and in the cell control, the resulting values are 300 to 400 RLUs. The EC50 values of the test substances are determined as the concentration of the treated infected cells, in which the virus replication measured in RLUs is 50% of the untreated infected cells.

HIV-1LAI Wild Type = assay: AlamarBlue viability assay, HIV-1LAI-infected MT4 cells; conditions: 10% FCS
Protocol: For the batch of a 96-well MTP, 3 million PBLs are pelletized, suspended in 1 ml of RPMI 1640 medium/10% FCS/2 mmol of L-glutamine/1% Pen/Strep, and incubated together with a suitable amount of HIV-1LA1 (NIH AIDS Research & Reference Reagent Program, Germantown, USA) for 2 hours at 37° C. (pellet infection). Non-adsorbed viruses are then washed out with PBS, the infected cells are pelletized again, and suspended in 18 ml of RPMI 1640 medium/10% FCS/2 mmol of L-glutamine/1% Pen/Strep/interleukin-2 (40 U/ml). Therefrom, 180 μl per well is pipetted into a white 96-well MTP in 20 μl of test substance in a suitable dilution. As an alternative, after preparation of the substance dilutions, the HIV is added by pipetting in the MTP together with the cells and is no longer washed out (supernatant infection). In order to avoid boundary effects, the edge wells of the MTP are not used for substance dilutions. The second vertical row of the MTP contains only infected cells (virus control), and the eleventh vertical row contains only non-infected cells (cell control) in each case in RPMI 1640 medium/10% FCS/2 mmol of L-glutamine/1% Pen/Strep/interleukin-2 (40 U/ml). The other wells of the MTP contain the compounds according to the invention in different concentrations starting from the third vertical row, from which dilution of the test substances is carried out 3^7 times in three steps up to the tenth vertical row. The test substances are dissolved in DMSO, whereby the DMSO final concentration in the test batch is ultimately 1%. The test batches are incubated at 37° C./5% CO2. After 5 and 7 days, in each case 50 μl of cell-free supernatant is drawn off from each well in order to determine the amount of p24 contained by means of p24 ELISA (HIV-1 p24^CA Antigen Capture Assay Kit, NCI-Frederick Cancer Research and Development Center, Frederick, USA). From the resulting values of the photometric analysis (450/620 nm), the EC50 values of the test substances are determined as the concentration of the treated infected cells, in which the amount of p24 is 50% of the untreated infected cells.
As an alternative, MT4 cells are used for testing test substances instead of PBLs. HIV-1LA1-infected MT4 cells (MOI 0.01, supernatant infection) are incubated according to the above-described pattern in RPMI 1640 medium with 2% or 10% FCS/2 mmol of L-glutamine/1% Pen/Strep in the presence of test substances for 5 days at 37° C./5% CO2 (20 μl of substance dilution and 80 μl of cells/virus per well). Then, 10 μl of AlamarBlue (Invitrogen, Karlsruhe, Germany) is added to each well, and MTPs are incubated for 3 hours at 37° C., before the fluorimetric analysis is done (544/590 nm). The resulting values are approximately 30,000 in the case of untreated, non-infected cells, and approximately 6,000 in the case of untreated infected cells. In the low concentration range, the EC50 values of the test substances are determined as the concentration of the treated infected cells, in which the fluorescence is 50% of the untreated non-infected cells (in each case relative to the values of the untreated infected cells). In addition, in the high concentration range, the CC50 values of the test substances are determined as the concentration of the treated infected cells, in which the fluorescence is 50% of the untreated, non-infected cells (in each case relative to the values of the untreated infected cells).

HIV-1NL4-3 K103N-Y181C = assay: Luminescence reduction assay, MT4 cells infected with HIV-1NL4-3 luciferase reporter virus, RT mutant K103N-Y181C
Text: as §1, §2

[1] = Human immunodeficiency virus 1, MT4, MT4 cells
[2] = Human immunodeficiency virus 1, MT4, read-out: EC50 (μM) MT4 Cells HIV-1NL4-3 K103N-Y181C 2% FCS, MT4 cells, HIV-1NL4-3 K103N-Y181C, 2% FCS
[3] = read-out: EC50 (μM) MT4 Cells HIV-1NL4-3 K103N-Y181C 2% FCS, MT4 cells, HIV-1NL4-3 K103N-Y181C, 2% FCS

SMILES	EC50 (HIV-1NL4-3 Wild Type; [1])	EC50 (HIV-1LAI Wild Type; [1])	EC50 (HIV-1NL4-3 K103N-Y181C; [2])	EC50 (HIV-1NL4-3 Wild Type; MT4 cells)	EC50 (HIV-1LAI Wild Type; MT4 cells)	EC50 (HIV-1NL4-3 K103N-Y181C; [3])
O=C1CN(C(=O)c2cc(-c3cc(F)cc(Br)c3)n(-c3cccnc3)n2)CN1 [Example 90, 1-{[5-(3-Bromo-5-fluorophenyl)-1-(pyridin-3-yl)-1H-pyrazol-3-yl]carbonyl}imidazolidin-4-one]	0.003 µM	0.011 µM	0.033 µM	–	–	–
COc1cc(OC(F)(F)F)cc(-c2cc(C(=O)N3CNC(=O)C3)nn2-c2ccnc(Cl)c2)c1 [Example 86, 1-({1-(2-Chloropyridin-4-yl)-5-[3-methoxy-5-(trifluoromethoxy)phenyl]-1H-pyrazol-3-yl}carbonyl)imidazolidin-4-one]	0.014 µM	0.065 µM	0.011 µM	–	–	–
O=C1CN(C(=O)c2cc(-c3cc(Br)cc(OC(F)(F)F)c3)n(-c3ccc(Cl)nc3)n2)CCN1 [Example 35, 4-({5-[3-Bromo-5-(trifluoromethoxy)phenyl]-1-(6-chloropyridin-3-yl)-1H-pyrazol-3-yl}carbonyl)piperazin-2-one]	0.042 µM	0.232 µM	0.01 µM	–	–	–
O=C(c1cc(-c2cc(F)cc(OC(F)(F)F)c2)n(-c2cccnc2)n1)N1CC[S+]([O-])C1 (racemic) [Example 60-1, {5-[3-Fluoro-5-(trifluoromethoxy)phenyl]-1-(pyridin-3-yl)-1H-pyrazol-3-yl}(1-oxido-1,3-thiazolidin-3-yl)methanone]	–	–	–	0.431 µM	> 3.3 µM	> 3.3 µM
Cc1cc(-n2nc(C(=O)N3CNC(=O)C3)cc2-c2cc(F)cc(Cl)c2)ccn1 [Example 21, 1-{[5-(3-Chloro-5-fluorophenyl)-1-(2-methylpyridin-4-yl)-1H-pyrazol-3-yl]carbonyl}imidazolidin-4-one]	0.092 µM	0.397 µM	0.436 µM	–	–	–
O=C1CN(C(=O)c2cc(-c3ccnc(Cl)c3)n(-c3cccc(Cl)c3)n2)CCN1 [Example 115, 4-{[1-(3-Chlorophenyl)-5-(2-chloropyridin-4-yl)-1H-pyrazol-3-yl]carbonyl}piperazin-2-one]	0.027 µM	0.352 µM	1.09 µM	–	–	–
O=C(c1cc(-c2cc(Br)cc(OC(F)(F)F)c2)n(-c2cccnc2)n1)N1CC[S+]([O-])C1 (racemic) [Example 31-1, {5-[3-Bromo-5-(trifluoromethoxy)phenyl]-1-(pyridin-3-yl)-1H-pyrazol-3-yl}(1-oxido-1,3-thiazolidin-3-yl)methanone]	–	–	–	0.084 µM	0.82 µM	0.981 µM
O=C(c1cc(-c2cc(F)cc(OCC(F)(F)F)c2)n(-c2cccnc2)n1)N1CCS(=O)(=O)C1 [Example 74, (1,1-Dioxido-1,3-thiazolidin-3-yl) {5-[3-fluoro-5-(2,2,2-trifluoroethoxy)phenyl]-1-(pyridin-3-yl)-1H-pyrazol-3-yl}methanone]	0.004 µM	0.066 µM	0.302 µM	–	–	–
O=C1CN(C(=O)c2cc(-c3cc(F)cc(Cl)c3)n(-c3ccnc(C(F)(F)F)c3)n2)CN1 [Example 16, 1-({5-(3-Chloro-5-fluorophenyl)-1-[2-(trifluoromethyl)pyridin-4-yl]-1H-pyrazol-3-yl}carbonyl)imidazolidin-4-one]	0.055 µM	0.49 µM	0.339 µM	–	–	–
Cc1ccc(-n2nc(C(=O)N3CNC(=O)C3)cc2-c2cc(F)cc(Cl)c2)cn1 [Example 11, 1-{[5-(3-Chloro-5-fluorophenyl)-1-(6-methylpyridin-3-yl)-1H-pyrazol-3-yl]carbonyl}imidazolidin-4-one]	0.007 µM	0.057 µM	0.061 µM	–	–	–
O=C1CN(C(=O)c2cc(-c3cc(F)cc(Cl)c3)n(-c3cccc(Cl)n3)n2)CN1 [Example 2, 1-{[5-(3-Chloro-5-fluorophenyl)-1-(6-chloropyridin-2-yl)-1H-pyrazol-3-yl]carbonyl}imidazolidin-4-one]	0.272 µM	> 3.3 µM	> 3.3 µM	–	–	–
O=C1CN(C(=O)c2cc(-c3ccnc(Cl)c3)n(-c3ccc(F)c(Cl)c3)n2)CN1 [Example 112, 1-{[1-(3-Chloro-4-fluorophenyl)-5-(2-chloropyridin-4-yl)-1H-pyrazol-3-yl]carbonyl}imidazolidin-4-one]	0.016 µM	0.079 µM	0.03 µM	–	–	–
COc1cncc(-c2cc(C(=O)N3CCNC(=O)C3)nn2-c2ccc(F)c(Cl)c2)c1 [Example 103, 4-{[1-(3-Chloro-4-fluorophenyl)-5-(5-methoxypyridin-3-yl)-1H-pyrazol-3-yl]carbonyl}piperazin-2-one]	0.205 µM	0.785 µM	0.375 µM	–	–	–
